Results published in patent publication US8278469B2, “17-hydroxy-17-pentafluoroethyl-estra-4,9(10)-dien-11-aryl derivatives, method of production thereof and use thereof for the treatment of diseases” (Bayer Pharma Aktiengesellschaft, priority 2009, dated 2012).
Where two headings read alike, the source gives them in different places.

Key:
[1] = molecular target: T1, human progesterone receptor A (PR-A) (Homo sapiens, UniProt P06401); assay: Progesterone receptor-antagonistic action in stable transfectants of SK-N-MC cells with human PR-A and MTV-LUC reporter; type: cell-based; details: read-out: Progesterone receptor A (PR-A) Efficacy
T1 construct: expressed in transfected cells; host or cells: SK-N-MC human neuroblastoma cells, stably transfected with pRChPR-A-neo and pMMTV-LUC
T1 sequence (P06401 1-769 isoform P06401-2): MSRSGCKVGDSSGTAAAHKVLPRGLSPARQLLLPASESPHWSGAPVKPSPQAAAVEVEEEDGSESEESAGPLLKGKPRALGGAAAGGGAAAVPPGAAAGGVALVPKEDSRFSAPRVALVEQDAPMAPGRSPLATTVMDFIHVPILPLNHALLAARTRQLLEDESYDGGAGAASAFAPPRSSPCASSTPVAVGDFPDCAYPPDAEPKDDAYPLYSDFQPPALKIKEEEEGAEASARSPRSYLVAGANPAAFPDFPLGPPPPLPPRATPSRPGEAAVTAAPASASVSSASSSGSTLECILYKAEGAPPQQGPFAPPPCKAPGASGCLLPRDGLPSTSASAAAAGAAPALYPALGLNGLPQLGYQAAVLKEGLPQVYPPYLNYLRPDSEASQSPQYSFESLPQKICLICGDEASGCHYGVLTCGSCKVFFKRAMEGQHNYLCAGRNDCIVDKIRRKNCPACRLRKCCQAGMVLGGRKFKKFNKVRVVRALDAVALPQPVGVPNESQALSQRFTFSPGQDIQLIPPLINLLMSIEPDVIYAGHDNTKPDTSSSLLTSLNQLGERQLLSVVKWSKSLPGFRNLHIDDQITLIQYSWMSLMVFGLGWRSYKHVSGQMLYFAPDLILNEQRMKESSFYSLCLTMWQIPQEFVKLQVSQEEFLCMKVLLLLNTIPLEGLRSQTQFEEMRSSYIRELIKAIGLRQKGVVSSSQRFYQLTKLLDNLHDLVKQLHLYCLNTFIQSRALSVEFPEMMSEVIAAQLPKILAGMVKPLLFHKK
Description: (§1) Progesterone Receptor-Antagonistic Action in Stable Transfectants of Human Neuroblastoma Cells (SK-N-MC Cells) with the Human Progesterone A or Progesterone B Receptor and an MTV-LUC Reporter Construct
(§2) SK-N-MC cells (human neuroblastoma cells), which have been stably transfected with plasmids, which express the human progesterone receptor B (pRChPR-B-neo) or the human progesterone receptor A (pRChPR-A-neo) and a reporter construct (pMMTV-LUC), were incubated for 24 hours either in the absence (negative control) or in the presence of increasing amounts of the respective test compound (0.01 nmol/l, 0.1 nmol/l, 1 nmol/l, 10 nmol/l, 100 nmol/l and 1 μmol/l), in order to determine the agonistic efficacy. As positive control of reporter gene induction, the cells were treated with the synthetic gestagen promegestone (0.01 nmol/l, 0.1 nmol/l, 1 nmol/l, 10 nmol/l, 100 nmol/l and 1 μmol/l). For determination of the antagonistic activity, the cells were treated with 0.1 nmol/l promegestone and additionally with increasing amounts of the respective test compound (0.01 nmol/l, 0.1 nmol/l, 1 nmol/l, 10 nmol/l, 100 nmol/l and 1 μmol/l). The activity of the LUC reporter gene (LUC=luciferase) was determined in the cell lysates and was measured as RLU (relative light units). All measured values are given as percentage efficacy and as EC50 or IC50 concentrations.
(§3) 11β-(4-Acetylphenyl)-20,20,21,21,21-pentafluoro-17-hydroxy-19-nor-17α-pregna-4,9-dien-3-one and 20,20,21,21,21-pentafluoro-17-hydroxy-11β-[4-(hydroxyacetyl)phenyl]-19-nor-17α-pregna-4,9-dien-3-one, very potent and therefore preferred examples from WO98/34947 and WO2008/058767, were tested as comparative compounds along with the test compound.

[2] = molecular target: T2, human progesterone receptor B (PR-B) (Homo sapiens, UniProt P06401); assay: Progesterone receptor-antagonistic action in stable transfectants of SK-N-MC cells with human PR-B and MTV-LUC reporter; type: cell-based; details: for Emax: read-out: Progesterone receptor B (PR-B) Efficacy
T2 construct: expressed in transfected cells; host or cells: SK-N-MC human neuroblastoma cells, stably transfected with pRChPR-B-neo and pMMTV-LUC
T2 sequence (P06401 1-933): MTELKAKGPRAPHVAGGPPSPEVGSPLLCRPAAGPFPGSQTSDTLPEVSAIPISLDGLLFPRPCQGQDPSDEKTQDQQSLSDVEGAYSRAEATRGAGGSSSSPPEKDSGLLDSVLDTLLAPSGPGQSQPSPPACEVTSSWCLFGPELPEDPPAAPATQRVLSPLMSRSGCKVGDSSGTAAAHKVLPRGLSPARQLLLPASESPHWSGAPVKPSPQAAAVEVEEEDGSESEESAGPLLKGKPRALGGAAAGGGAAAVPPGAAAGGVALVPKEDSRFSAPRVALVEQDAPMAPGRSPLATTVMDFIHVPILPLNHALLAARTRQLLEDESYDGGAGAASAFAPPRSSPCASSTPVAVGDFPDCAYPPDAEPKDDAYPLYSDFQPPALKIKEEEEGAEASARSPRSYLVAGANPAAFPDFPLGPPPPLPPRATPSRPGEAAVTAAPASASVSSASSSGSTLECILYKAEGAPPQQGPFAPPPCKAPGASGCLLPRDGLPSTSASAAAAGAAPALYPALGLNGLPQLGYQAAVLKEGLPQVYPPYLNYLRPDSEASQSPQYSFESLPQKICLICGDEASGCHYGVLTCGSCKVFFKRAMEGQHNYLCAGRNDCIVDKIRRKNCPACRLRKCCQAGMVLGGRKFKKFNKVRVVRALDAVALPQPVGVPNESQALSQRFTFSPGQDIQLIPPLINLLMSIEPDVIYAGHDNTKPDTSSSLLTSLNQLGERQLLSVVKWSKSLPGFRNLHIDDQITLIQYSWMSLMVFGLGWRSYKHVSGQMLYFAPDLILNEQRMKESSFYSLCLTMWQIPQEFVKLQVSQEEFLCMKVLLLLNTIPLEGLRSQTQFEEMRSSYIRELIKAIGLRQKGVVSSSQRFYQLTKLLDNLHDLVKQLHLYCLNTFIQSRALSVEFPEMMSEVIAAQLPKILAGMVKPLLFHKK
Description: as §1, §2, §3

[3] = Metabolic stability in human liver microsomes (HLM); type: in vitro ADME; details: HLM 0.5 mg/ml protein, 1 μM, 37° C., pH 7.4; well-stirred model, phase I reactions
Description: Metabolic Stability of (11β,17β)-17-hydroxy-11-[4-(methylsulphonyl)phenyl]-17-(pentafluoroethyl)estra-4,9-dien-3-one and (11β,17β)-17-hydroxy-11-[4′-(methylsulphonyl)-biphenyl-4-4-yl]-17-(pentafluoroethyl)estra-4,9-dien-3-one in Human Liver Microsomes (HLM)
Isolated human liver microsomes (HLM) were used for assessing the metabolic stability of compounds of general formula I.
Incubations were carried out with 2.4 ml of HLM solution (0.5 mg/ml protein content), 30 μl of the test compound (final concentration 1 μM) and 0.6 ml of the cofactor mixture (=NADPH-generating system of 3 IU glucose-6-phosphate dehydrogenase, 14.6 mg glucose-6-phosphate, 1.2 mg NADP) at 37° C. in 100 mM phosphate buffer at pH 7.4. Samples are taken at 6 time points (2-60 min), precipitated with an equal volume of methanol and the recovery of the test substances used in the supernatant is determined by LC-MS/MS analysis. The intrinsic clearance of the substance in the liver microsome preparation can be calculated from the half-life found for the breakdown of the substance. Based on this, together with various physiological characteristics according to the well-stirred model, it is then possible to predict a (metabolic) in vivo clearance with respect to phase I reactions. […]

[4] = antagonistic efficacy against 0.1 nmol/l promegestone, SK-N-MC cells, 24 hours

Emax [1, 4] [%]	Emax [2, 4] [%]	(metabolic) in vivo clearance in humans predicted [3] [mL/min/kg]	SMILES	Emax ([1]; SK-N-MC, 24 h) [%]	Emax ([2]; SK-N-MC, 24 h) [%]	IC50 ([2]; antagonistic activity against 0.1 nmol/l promegestone, SK-N-MC cells, 24 hours, LUC reporter, read-out: Progesterone receptor B (PR-B) Potency IC50) [pM]
100	100	< 0.17	C[C@]12C[C@H](c3ccc(-c4ccc(S(C)(=O)=O)cc4)cc3)C3=C4CCC(=O)C=C4CC[C@H]3[C@@H]1CC[C@@]2(O)C(F)(F)C(F)(F)F [Example 10, (11β,17β)-17-hydroxy-11-[4′-(methylsulphonyl)biphenyl-4-yl]-17-(pentafluoroethyl)estra-4,9-dien-3-one]			
			CSc1ccc([C@H]2C[C@@]3(C)[C@@H](CC[C@@]3(O)C(F)(F)C(F)(F)F)[C@@H]3CCC4=CC(=O)CCC4=C32)cc1 [Example 1, (11β,17β)-17-hydroxy-11-[4-(methylsulphanyl)phenyl]-17-(pentafluoroethyl)estra-4,9-dien-3-one]	100	100	12
